Values after ≈ are worked out from the molar mass of the structure shown. Values joined by “and” are separate entries in the source; they are usually repeats but may differ in a detail not shown here. Identical values can stand only once. Like-named read-outs stand apart in the source and are kept apart here.
Assays:
[1] = tested on: non-invasive fungus-induced rhinosinusitis patients; assay: Amphotericin B irrigations in patients without previous nasal surgery (Example 3); type: in vivo, human
Source text: A person was diagnosed with non-invasive fungus-induced rhinosinusitis and instructed to perform amphotericin B irrigations twice a day.
A person was diagnosed with non-invasive fungus-induced rhinosinusitis and instructed to perform amphotericin B irrigations twice a day, which was later increased to four times a day.
A person was diagnosed with non-invasive fungus-induced rhinosinusitis and instructed to perform amphotericin B irrigations twice a day. This patient had been given intramuscular steroid shots every 3 to 8 months with the last shot being administered about seven months prior to starting the amphotericin B irrigations.

[2] = tested on: patients with chronic asthma; assay: Chronic asthma symptoms in patients of the Example 2 study (Example 5); type: in vivo, human
Experimental: One hundred and thirty-two consecutive rhinosinusitis patients were entered into a study to evaluate the use of an antifungal agent to treat non-invasive fungus-induced rhinosinusitis. […] The 125 non-invasive fungus-induced rhinosinusitis patients were started on an antifungal treatment of about 20 mL of an amphotericin B solution per nostril, two to four times daily for at least three months. The concentration of the amphotericin B solution was about 100 mg per liter of saline or water. A 20 mL bulb was used by the patient to mucoadminister the amphotericin B solution into the patient's nasal-paranasal anatomy. Data were compiled for 53 of the patients who had returned for their three month follow-up analysis.

[3] = tested on: patient with rhinosinusitis; assay: Single patient study, one-sided then two-sided amphotericin B irrigation, RAST assay to Alternaria; type: in vivo, human
Source text: In addition, the previously detected fungal load in the initially untreated side (right side) was sufficient to eventually cause presentation of visual or palpable rhinosinusitis symptoms in that initially untreated side. Further, the fungal organisms present in the initially untreated side (right side) induced high IgE titers, as shown by IgE readings from the RAST assays, independent of concurrent reduction of fungal organisms by antifungal treatment applied to the left side. In this case, a reduction of IgE readings from the RAST assays was only observed after irrigating both sides with an antifungal agent. Thus, the reduction of IgE and the prevention of disease symptoms coincided with the treatment of both sides with an antifungal agent.

[4] = tested on: non-invasive fungus-induced rhinosinusitis patients; assay: Itraconazole nasal irrigation (Example 7); type: in vivo, human; conditions: for adverse local reaction to nasal irrigations: third patient
Experimental: Three non-invasive fungus-induced rhinosinusitis patients (person, person, and person) were instructed to perform nasal irrigation with an itraconazole solution. The itraconazole solution contained about 100 mg of itraconazole per L of solution (10% PEG-400 in sterile water) and was prepared as described herein. […] Each patient reported marked improvement in symptoms within two weeks of starting the itraconazole irrigations (symptom scores: -1 to +2 and -1 to +1).
After treatment with itraconazole, that patient reported symptom improvement (symptom score: from -1 to 0).

[5] = tested on: fungal organisms within their mucus; assay: Analysis of mucus samples of non-responding patients for resistance; type: cell-based; conditions: five of the nine non-responding patients
Source text: Eleven of the 53 patients went from endoscopic evaluation stage 2 or 3 to stage 1 after three months. […] Five of the nine non-responding patients had previously collected mucus samples that were available for examination.

[6] = tested on: Geotrichum; assay: MIC, macro broth dilution technique (NCCLS), isolates from rhinosinusitis patients; type: cell-based; conditions: 48 hour MIC reading
Experimental: (§1) The following procedure was used to determine effective antifungal agents as well as effective concentrations of antifungal agents such that the fungal organisms isolated from patients can be prevented from growing or killed.
(§2) Seventeen fungal isolates were collected from eight rhinosinusitis patients and tested for susceptibility against amphotericin B, ketoconazole, and itraconazole. Each antifungal agent was tested on these fungal isolates using the macro broth dilution technique according to the National Committee on Clinical Laboratory Standards (NCCLS) protocol. […] The results from this procedure provided an estimate of the efficacy of antifungal agents against specific fungal isolates in vitro.

[7] = tested on: Trichoderma; assay: as above; type: cell-based; conditions: 48 hour MIC reading
Experimental: as §1, §2

[8] = tested on: non-invasive fungus-induced rhinosinusitis patients; assay: Patient data collected during a one week period (amphotericin B nasal irrigations); type: in vivo, human; parameters: Endoscopy Score B / Endoscopy Score A / Symptom Score B: scale not given here
Source text: In addition to patient interviewing, CT scan analysis, visual examination, and fungal culture analysis, two types of evaluations were used to score the success of the treatment: an endoscopic evaluation and a patient symptom evaluation. These evaluations were scored as follows:
Only previously seen patients that were instructed to use the antifungal amphotericin B nasal irrigations were entered into this study.
During a one week period, twenty patients returned to the physician's office (Table II). The average age of the returning patients was 47 years (range 16-74 years). The patients were using the amphotericin B irrigations for an average duration of about six months (range 1-16 months). […] In addition, some patients were using topical and systemic steroid therapy. Further, some patients were using an antibiotic nasal irrigation in addition to the antifungal irrigations. The antibacterial solution contained 80 mg gentamicin per L saline (Wilson's solution). Some patients mixed the antibacterial solution with the antifungal solution and then performed the nasal irrigations while others used each solution separately in a sequential manner. Some patients also had other diseases including asthma (15 of the 20 patients) and colitis (2 of the 20 patients).

[9] = tested on: non-invasive fungus-induced rhinosinusitis patient; assay: Eosinophil count in mucosal biopsies after amphotericin B irrigations (Example 4); type: in vivo, human
Source text: A person was diagnosed with non-invasive fungus-induced rhinosinusitis and instructed to perform amphotericin B irrigations twice a day. After nine months of amphotericin B irrigations, the patient underwent sinus surgery for further improvement. During the surgery mucosal biopsies were collected and the eosinophil count compared to the those obtained from biopsies collected from the patient during a surgery prior to the antifungal treatment.

[10] = tested on: non-invasive fungus-induced rhinosinusitis patients; assay: Amphotericin B nasal irrigation study, three month follow-up (Example 2); type: in vivo, human
Source text: In addition to patient interviewing, CT scan analysis, visual examination, and fungal culture analysis, two types of evaluations were used to score the success of the treatment: an endoscopic evaluation and a patient symptom evaluation.

[11] = tested on: patient with asthma symptoms; assay: Itraconazole nasal irrigation in an asthma patient, pulmonary function (Example 8); type: in vivo, human; conditions: before antifungal treatment
Experimental: Sputum and nasal-paranasal mucus samples were collected and analyzed.
The concentration of the itraconazole solution was about 100 mg per liter. After a few weeks, the patient took their last course of systemic steroids. About two months after stopping the systemic steroids, the patient also stopped using the topical steroids as well as the bronchodilator.

[12] = tested on: Candida; assay: MIC, macro broth dilution technique (NCCLS), isolates from rhinosinusitis patients; type: cell-based; conditions: 48 h, 48 hour MIC reading, each table line is one isolate
Experimental: as §1, §2

[13] = tested on: Cladosporium; assay: as above; type: cell-based; conditions: 48 h, 48 hour MIC reading, each table line is one isolate
Experimental: as §1, §2

[14] = tested on: Penicillium; assay: as above; type: cell-based; conditions: 48 h, 48 hour MIC reading, each table line is one isolate
Experimental: as §1, §2

[15] = Concentrations of itraconazole in solution by HPLC; type: physicochemical; conditions: read-out: Soluble Itraconazole Concentration
Experimental: Itraconazole formulations were made by dissolving itraconazole into polyethylene glycol (PEG) to form an itraconazole stock solution. […] Typically, PEG 400 was used to dissolve the itraconazole. Once dissolved, the stock solution was filtered to remove any insoluble material. Then, the stock solution was prepared for use by dilution with sterile water. […] One liter of heated (70° C.) PEG-400 was added to the graduated cylinder containing the itraconazole. The mixture was then placed onto a stirring hot plate and maintained at 70° C. for 30 minutes. After 30 minutes, the hot suspension was filtered through a urine stone filter into a glass container and allowed to cool to room temperature. Once cooled, 100 mL of the filtered solution was placed into an empty plastic bottle. Then, 900 mL of sterile water was added and the solution mixed. Once mixed, one drop of flavoring was added (peppermint oil). […] The following concentrations of itraconazole were determined for each indicated solution by HPLC (Table III).

[16] = Oral itraconazole capsule, drug remaining in the bowel lumen (Example 10); type: in vivo, human; conditions: 100 mg capsule before bedtime, two hours after last meal, without cola
Source text: Three out of five consecutive patients with chronic rhinosinusitis reported having a history of colitis. […] Each patient was instructed to take the capsule before bedtime a minimum of two hours after their last meal and without any cola. Food and cola beverages increase absorption of the drug.

[17] = after antifungal treatment (1-16 months, 1-2 x day), each table line is one patient
[18] = before antifungal treatment, each table line is one patient
[19] = patient symptom evaluation after treatment, 53 patients
[20] = sixteen days after starting the itraconazole irrigations

C[C@@H]1[C@H](O)[C@@H](C)/C=C/C=C/C=C/C=C/C=C/C=C/C=C/[C@H](O[C@@H]2O[C@H](C)[C@@H](O)[C@H](N)[C@@H]2O)C[C@@H]2O[C@](O)(C[C@@H](O)C[C@@H](O)[C@H](O)CC[C@@H](O)C[C@@H](O)CC(=O)O[C@H]1C)C[C@H](O)[C@H]2C(=O)O [Amphotericin B, amphotericin B]
endoscopic score after treatment ([1]; amphotericin B irrigations twice (to four times) a day for four to sixteen months): 0 | symptom score before treatment ([1]; patients without previous nasal surgery): −1 | asthmatic patients declaring an improvement or complete elimination of asthma symptoms ([2]; after three months of antifungal treatment, 37 asthmatic patients): 28 of the 37 | patients with improved pulmonary function (pulmonary function test before and after) ([2]; four patients tested): all four | patients who stopped taking their asthma medication ([2]; of the 28 patients no longer exhibiting asthma symptoms): 26 of the 28 | RAST reading to Alternaria ([3]; after right-side surgery and treatment of both sides for about seven weeks): 4.47 KU/L | clinical status ([3]; after treatment of both sides for about seven weeks): symptom-free | adverse local reaction to nasal irrigations [4]: burning sensation | susceptibility of fungal organisms in mucus of non-responding patients [5]: resistant | MIC [6]: 0.1 µg/mL (≈ 0.108 µM) | MIC [7]: 4 µg/mL (≈ 4.33 µM) | Endoscopy Score A [8, 17]: 0 (10×) and 3 (5×) and 1 (2×) | Symptom Score A [8, 17]: +1 (6×) and +2 (6×) and 0 (6×) and −2 and 1 | Endoscopy Score B [8, 18]: 1 (3×) and 2 (5×) and 3 (10×) and 0 | Symptom Score B [8, 18]: −1 (14×) and −2 (6×) | endoscopic evaluation of rhinosinusitis condition ([8]; most of twenty patients): observable improvement | eosinophil count in mucosal biopsies ([9]; all the sinuses except the frontal, after nine months of irrigations twice a day): < 5% | eosinophil count in the frontal sinus biopsy ([9]; frontal sinus (obstructed, irrigation presumably did not reach it), after nine months): 10% | patients who went from endoscopic evaluation stage 2 or 3 to stage 0 ([10]; about 20 mL amphotericin B solution (about 100 mg per liter) per nostril, two to four times daily, after three months, 53 patients): 33 of the 53 | CT scan finding ([10]; one patient with bilateral rhinosinusitis, 20 mL (100 mg/L) per nostril two times daily, after four months): complete disappearance of opacity and symptoms characteristic of rhinosinusitis | patients giving themselves symptom stage 0 [10, 19]: six of the 53 | patients giving themselves symptom stage 1 [10, 19]: three of the 53 | patients giving themselves symptom stage 2 [10, 19]: 44 of the 53 | patients who did not respond to the treatment (endoscopic evaluation) ([10]; same regimen, after three months, 53 patients): nine | number of different fungal species in mucus after treatment ([10]; several patients, mucus cultured before and after antifungal treatment): remarkably reduced

CCC(C)n1ncn(-c2ccc(N3CCN(c4ccc(OCC5COC(Cn6cncn6)(c6ccc(Cl)cc6Cl)O5)cc4)CC3)cc2)c1=O (centres unmarked) [Itraconazole, itraconazole]
forced expiratory volume in 1 second (FEV1) before treatment [11]: 3.34 L | forced vital capacity (FVC) before treatment [11]: 3.99 L | maximal forced expiratory flow (FEFmax) before treatment [11]: 9.1 liter per second | maximum voluntary ventilation (MVV) before treatment [11]: 119 liter per minute | symptom score before itraconazole irrigations ([4]; itraconazole solution about 100 mg per L (10% PEG-400 in sterile water)): -1 | endoscopic score, left side, before ([4]; one patient): 1 | endoscopic score, right side, before ([4]; one patient): 1 | endoscopic score, left side, after [4, 20]: 1 | endoscopic score, right side, after [4, 20]: 0 | adverse local reaction to nasal irrigations [4]: did not have any adverse local reaction | MIC [12]: 0.03 µg/mL (≈ 0.0425 µM) | MIC [13]: 0.125 µg/mL (≈ 0.177 µM) | MIC [14]: 0.5 µg/mL (≈ 0.709 µM) | solubility ([15]; PEG-400, organic solvent or mixture, 500 mg Itraconazole powder AS into 250 mL PEG-400 (stock solution)): 1950 µg/mL (≈ 2760 µM) | solubility at 30 min ([15]; PEG-400, organic solvent or mixture, 2000 mg Itraconazole from capsules into 1 L PEG-400 (stock solution)): 1840 µg/mL (≈ 2610 µM) | solubility ([15]; PEG-400/sterile water solution, aqueous with cosolvent or surfactant or cyclodextrin, kinetic from dmso stock, 100 mL capsule stock solution diluted with 900 mL sterile water): 113 µg/mL (≈ 160 µM) | solubility ([15]; PEG-400/sterile water solution, aqueous with cosolvent or surfactant or cyclodextrin, kinetic from dmso stock, 100 mL capsule stock solution plus 25 mL PEG-400 diluted with 875 mL sterile water): 155 µg/mL | solubility ([15]; PEG-400/sterile water solution, aqueous with cosolvent or surfactant or cyclodextrin, kinetic from dmso stock, 100 mL capsule stock solution plus 150 mL PEG-400 diluted with 750 mL sterile water): 179 µg/mL | solubility ([15]; PEG-400/sterile water solution, aqueous with cosolvent or surfactant or cyclodextrin, kinetic from dmso stock, 100 mL powder AS stock solution diluted with 900 mL sterile water): 85 µg/mL (≈ 120 µM) | itraconazole that should remain in the bowel lumen [16]: about 50%

CC(=O)N1CCN(c2ccc(OCC3COC(Cn4ccnc4)(c4ccc(Cl)cc4Cl)O3)cc2)CC1 (centres unmarked) [Ketoconazole, ketoconazole]
MIC ([6]; read-out: MIC): 0.05 µg/mL (≈ 0.0941 µM) | MIC ([7]; read-out: MIC): 50 µg/mL (≈ 94.1 µM)
